Test results as given in patent publication US4514573A, “Isoprenylamine derivatives” (priority 1981, dated 1985).

How the values were obtained:
tumor cells KN7 -8 = assay: Anti-tumor activity in mice inoculated with tumor cells; type: in vivo, Balb/c male mice; settings: 30 mg/kg intraperitoneally, 24 hours before inoculation and on second and fifth day after; 6 mice per group
Description: Groups, each consisting of 6 Balb/c male mice weighing about 20 g, were intraperitoneally administered 5×10^5 of tumor cells KN7 -8.

vaccinia virus = type: cell-based; settings: 50 n molar concentration, Vero cells, in vitro

| Structure (SMILES) | Anti-tumor activity (Survivor on the 30th day) (tumor cells KN7 -8) | Anti-vaccinia virus activity Plaque inhibition rate % (vaccinia virus) [%] |
| --- | --- | --- |
| CC(C)=CCCC(C)=CCCC(C)=CCCC(C)=CCCC(C)=CCCC(C)=CCCC(C)=CCCC(C)=CCCC(C)=CCCC(C)=CCNCc1cccc(CN)c1 [drawing 58] | 1/6 |  |
| CC(C)=CCCC(C)=CCCC(C)=CCCC(C)=CCCC(C)=CCCC(C)=CCCC(C)=CCCC(C)=CCCC(C)=CCNCc1ccc(C)cc1C |  | 9.8 |
| COc1ccc(CNCC=C(C)CCCC(C)CCCC(C)CCCC(C)C)cc1OC (stereo not drawn) [drawing 90] |  | 22.0 |
